Patent publication US11866450B2, “Modulators of Cystic Fibrosis Transmembrane Conductance regulator, pharmaceutical compositions, methods of treatment, and process for making the modulators” (priority 2018, dated 2024)

Target: CFTR-mediated chloride transport (Homo sapiens, UniProt P13569)
Assay type: cell-based
Details: enteroid cells incubated with test compound 18-24 hours, acute 10 μM forskolin and 300 nM Compound III; for Max. Activity: % of chloride transport with 3 μM Compound A, 3 μM Compound II and 300 nM acute Compound III triple combination control
How it was run: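 Membrane-potential fluorescence AUC over 15 min quantified CFTR chloride transport after acute forskolin (10 μM), IBMX (100 μM) and Compound III (300 nM) in chloride-free buffer. Human enteroid cells were pretreated with compound for 18–24 h; % Activity is relative to 3 μM Compound A + 3 μM Compound II + 300 nM Compound III.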

Sequence of CFTR-mediated chloride transport (P13569 whole entry, looked up): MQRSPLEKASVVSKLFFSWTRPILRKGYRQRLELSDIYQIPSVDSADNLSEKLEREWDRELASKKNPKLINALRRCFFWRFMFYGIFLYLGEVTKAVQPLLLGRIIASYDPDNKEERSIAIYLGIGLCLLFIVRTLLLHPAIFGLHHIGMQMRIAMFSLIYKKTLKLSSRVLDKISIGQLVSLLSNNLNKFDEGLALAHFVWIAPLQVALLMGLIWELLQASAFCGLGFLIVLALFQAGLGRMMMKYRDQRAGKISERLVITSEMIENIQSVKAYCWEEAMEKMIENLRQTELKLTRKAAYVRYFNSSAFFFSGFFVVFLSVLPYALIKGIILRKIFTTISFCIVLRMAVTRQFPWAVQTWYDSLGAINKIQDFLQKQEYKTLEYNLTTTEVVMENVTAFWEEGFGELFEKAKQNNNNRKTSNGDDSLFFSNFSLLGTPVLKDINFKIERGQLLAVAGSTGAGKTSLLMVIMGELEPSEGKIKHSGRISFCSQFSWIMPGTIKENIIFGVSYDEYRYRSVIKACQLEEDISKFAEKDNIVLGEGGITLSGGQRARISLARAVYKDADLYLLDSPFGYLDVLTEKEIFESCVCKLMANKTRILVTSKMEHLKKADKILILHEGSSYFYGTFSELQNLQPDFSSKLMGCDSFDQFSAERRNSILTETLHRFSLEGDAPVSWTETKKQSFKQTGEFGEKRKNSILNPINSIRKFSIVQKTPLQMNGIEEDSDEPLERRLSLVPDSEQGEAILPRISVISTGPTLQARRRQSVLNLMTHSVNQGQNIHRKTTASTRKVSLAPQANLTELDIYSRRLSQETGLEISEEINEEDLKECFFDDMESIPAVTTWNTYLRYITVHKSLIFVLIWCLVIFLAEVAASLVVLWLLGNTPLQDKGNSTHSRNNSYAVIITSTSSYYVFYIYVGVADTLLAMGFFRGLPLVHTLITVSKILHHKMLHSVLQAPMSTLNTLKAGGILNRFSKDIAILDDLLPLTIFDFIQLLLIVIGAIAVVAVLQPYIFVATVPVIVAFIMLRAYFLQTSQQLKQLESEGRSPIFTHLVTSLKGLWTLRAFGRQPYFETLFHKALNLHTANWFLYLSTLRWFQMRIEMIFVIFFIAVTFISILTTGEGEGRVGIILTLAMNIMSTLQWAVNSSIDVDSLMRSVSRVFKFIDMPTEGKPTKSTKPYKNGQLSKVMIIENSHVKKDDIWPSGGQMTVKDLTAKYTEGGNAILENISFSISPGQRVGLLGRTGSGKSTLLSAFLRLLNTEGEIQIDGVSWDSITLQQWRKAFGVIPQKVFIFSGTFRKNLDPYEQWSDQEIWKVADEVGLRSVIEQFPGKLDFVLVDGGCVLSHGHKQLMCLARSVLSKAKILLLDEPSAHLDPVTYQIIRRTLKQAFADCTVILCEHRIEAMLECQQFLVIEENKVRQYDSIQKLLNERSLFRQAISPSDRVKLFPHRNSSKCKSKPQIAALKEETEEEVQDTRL

SMILES | EC50 | Max. Activity
CC1(C)C[C@@H]2CN1c1nc(-n3ccc(OCCC4C5(CC5)C45CC5)n3)ccc1C(=O)NS(=O)(=O)c1cccc(n1)NCC(F)(F)C2 (single isomer, unassigned) [Compound 305, 8-[3-(2-{Dispiro[2.0.2.1]heptan-7-yl}ethoxy)-1H-pyrazol-1-yl]-16,16-difluoro-12,12-dimethyl-2λ^6-thia-3,9,11,18,23-pentaazatetracyclo[17.3.1.111,14.05,10]tetracosa-1(22),5,7,9,19(23),20-hexaene-2,2,4-trione] | > 3000 nM | + (+ is <30%)
CC1(C)C[C@@H]2CCCNc3cccc(n3)S(=O)(=O)NC(=O)c3ccc(N4CC[C@H](OCCC5C6(CC6)C56CC6)C4=O)nc3N1C2 (single isomer, unassigned) [Compound 179] | < 1000 nM | ++ (++ is 30-60%)
CC1(C)C[C@@H]2CCCNc3cccc(n3)S(=O)(=O)NC(=O)c3ccc(N4CCN(CC(C)(C)C(F)(F)F)C4=O)nc3N1C2 [Compound 225, (14S)-12,12-dimethyl-8-[2-oxo-3-(3,3,3-trifluoro-2,2-dimethylpropyl)imidazolidin-1-yl]-2λ^6-thia-3,9,11,18,23-pentaazatetracyclo[17.3.1.111,14.05,10]tetracosa-1(22),5,7,9,19(23),20-hexaene-2,2,4-trione] | < 1000 nM | ++ (++ is 30-60%)
Cc1nn2cc1S(=O)(=O)NC(=O)c1ccc(-n3ccc(OCCC4(C(F)(F)F)CC4)n3)nc1N1C[C@H](CCCC2)CC1(C)C (single isomer, unassigned) [Compound 92, 12,21,21-trimethyl-4-(3-{2-[1-(trifluoromethyl)cyclopropyl]ethoxy}-1H-pyrazol-1-yl)-10λ^6-thia-1,3,9,13,14-pentaazatetracyclo[17.2.1.111,14.02,7]tricosa-2,4,6,11(23),12-pentaene-8,10,10-trione] | < 1000 nM | ++ (++ is 30-60%)
CC1(C)C[C@H]2CCCNc3cccc(n3)S(=O)(=O)NC(=O)c3ccc(-n4ccc(OCC5(C(F)(F)F)CC5)n4)nc3N1C2 (single isomer, unassigned) [Compound 22, 12,12-dimethyl-8-(3-{[1-(trifluoromethyl)cyclopropyl]methoxy}-1H-pyrazol-1-yl)-2λ^6-thia-3,9,11,18,23-pentaazatetracyclo[17.3.1.111,14.05,10]tetracosa-1(23),5(10),6,8,19,21-hexaene-2,2,4-trione] | < 1000 nM | +++ (+++ is >60%)
CC(C)(C)CCN1CCN(c2ccc3c(n2)N2CC(CCCn4ccc(n4)S(=O)(=O)NC3=O)CC2(C)C)C1=O (stereo not shown) [Compound 168, 4-[3-(3,3-dimethylbutyl)-2-oxoimidazolidin-1-yl]-20,20-dimethyl-10λ^6-thia-1,3,9,14,22-pentaazatetracyclo[16.2.1.111,14.02,7]docosa-2,4,6,11(22),12-pentaene-8,10,10-trione] | > 3000 nM | + (+ is <30%)
Cc1ccc2nc1S(=O)(=O)NC(=O)c1ccc(-n3ccc(OCCC4(C(F)(F)F)CC4)n3)nc1N1C[C@H](CCCN2)CC1(C)C (single isomer, unassigned) [Compound 149, 12,12,22-trimethyl-8-(3-{2-[1-(trifluoromethyl)cyclopropyl]ethoxy}-1H-pyrazol-1-yl)-2λ^6-thia-3,9,11,18,23-pentaazatetracyclo[17.3.1.111,14.05,10]tetracosa-1(23),5(10),6,8,19,21-hexaene-2,2,4-trione] | < 1000 nM | +++ (+++ is >60%)
CC1(C)C[C@@H]2CN1c1nc(-n3ccc(OCCC(C4CC4)C4CC4)n3)ccc1C(=O)NS(=O)(=O)c1cccc(n1)NCCO2 (single isomer, unassigned) [Compound 162, 8-[3-(3,3-dicyclopropylpropoxy)-1H-pyrazol-1-yl]-12,12-dimethyl-15-oxa-2λ^6-thia-3,9,11,18,23-pentaazatetracyclo[17.3.1.111,14.05,10]tetracosa-1(23),5,7,9,19,21-hexaene-2,2,4-trione] | 1000 to 3000 nM | ++ (++ is 30-60%)
